Data taken from patent US8044204B2, “8-methoxy-9H-isothiazolo[5,4-b]quinoline-3,4-diones and related compounds as anti-infective agents” (Achillion Pharmaceuticals, Inc., priority 2005, dated 2011).
Counter-ions that a name gives are not always drawn.

Columns and labels:
Format in all cases: cell-based
MRSA strain ATCC 700699 = assay: Minimum Inhibitory Concentration (MIC) assay, Methicillin Resistant S. Aureus; conditions: Staphylococcus aureus; broth microdilution; read-out: MIC against Methicillin Resistant S. Aureus
Excerpt: It has been unexpectedly discovered that substitution of compounds of Formula I and Formula II with a methoxy substituent at the R8 position increases the anti-microbial activity of the compound against Methicillin resistant Staphylococcus Aureus bacteria while at the same time decreasing the cellular toxicity of the compound. The simultaneous increase in compound activity and decrease in compound toxicity provides a greater therapeutic range for compounds of Formula I and Formula II in which R8 is methoxy; i.e. the range of doses of such compounds that will produce beneficial effects without harmful side effects is increased. […] Therapeutic range is determined using a standard assay of cytotoxicity such as the Alamar blue assay provided in Example 10.
(§1) The antimicrobial activity of the compounds of the invention may be evaluated by a number of methods, including the following visual minimum inhibitory concentration (MIC) assay. This assay determines the minimum concentration of compound required to inhibit growth of a bacterial strain.
(§2) Minimum Inhibitory Concentration (MIC) Assay
(§3) Whole-cell antibacterial activity is determined by broth microdilution using conditions recommended by the NCCLS (see National Committee for Clinical Laboratory Standards. 2001. Performance standards for antimicrobial susceptibility testing: 11th informational supplement. Vol. 21, no. 1, M100-S11. National Committee for Clinical Laboratory Standards, Wayne, Pa.). Test compounds are dissolved in DMSO and diluted 1:50 in Mueller-Hinton II broth (Becton-Dickinson) to produce a 256 μg/ml stock solution. In a 96-well microtiter plate, the compound solution is serially two-fold diluted in Mueller-Hinton II broth. After the compounds are diluted, a 50 μl aliquot of the test organism (˜1×10^6 cfu/mL) is added to each well of the microtiter plate. The final test concentrations ranges from 0.125-128 μg/mL. Inoculated plates are incubated in ambient air at 37° C. for 18 to 24 hours. The organisms selected for testing included laboratory strains S. aureus ATCC 29213 and E. coli ATCC 25922 (strains purchased from American Type Culture Collection, Manassas, Va.), S. aureus FQR700699, and Paeruginosa 27853. The minimum inhibitory concentration (MIC) is determined as the lowest concentration of compound that inhibited visible growth of the test organism.

S. aureus ATCC 29213 = assay: Minimum Inhibitory Concentration (MIC) assay, S. aureus; conditions: Staphylococcus aureus, ATCC29213; broth microdilution; read-out: MIC against S. Aureus
Experimental: as §1, §2, §3

E. coli ATCC 25922 = assay: Minimum Inhibitory Concentration (MIC) assay, E. coli; conditions: Escherichia coli, ATCC25922; broth microdilution; read-out: MIC against E. coli
Experimental: as §1, §2, §3

Measured: MIC

COc1c(N2CCC(C(C)(C)N)C2)c(F)cc2c(=O)c3c(=O)[nH]sc3n(C3CC3)c12 (stereo not drawn) [Compound 57, 7-(3-(2-aminopropan-2-yl)pyrrolidin-1-yl)-9-cyclopropyl-6-fluoro-8-methoxyiso-thiazolo[5,4-b]quinoline-3,4(2H,9H)-dione]
≤ 1 µg/mL: all assays above

COc1c(N2CC[C@@H](C(C)N)C2)ccc2c(=O)c3c(=O)[nH]sc3n(C3CC3)c12 (stereo partly drawn) [Compound 102, (R)-7-(3-(1-aminoethyl)-pyrrolidin-1-yl)-9-cyclopropyl-8-methoxyiso-thiazolo[5,4-b]quinoline-3,4(2H,9H)-dione]
≤ 1 µg/mL: all assays above

COc1c(N2CC[C@@H](CNC3CC3)C2)c(F)cc2c(=O)c3c(=O)[nH]sc3n(C3CC3)c12 [Compound 88, (S)-9-cyclo-propyl-7-(3-((cyclopropyl-amino)-methyl)-pyrrolidin-1-yl)-6-fluoro-8-methoxyiso-thiazolo[5,4-b]quinoline-3,4(2H,9H)-dione]
≤ 1 µg/mL: all assays above

CNC[C@@H]1CCN(c2c(F)cc3c(=O)c4c(=O)[nH]sc4n(C4CC4)c3c2OC)C1 [Compound 87, (S)-9-cyclo-propyl-6-fluoro-8-methoxy-7-(3-((methylamino)-methyl)pyrrolidin-1-yl)isothia-zolo[5,4-b]quinoline-3,4(2H,9H)-dione]
≤ 1 µg/mL: all assays above

COc1c(N2CC[C@@H](C3(N)CC3)C2)ccc2c(=O)c3c(=O)[nH]sc3n(C3CC3)c12 [Compound 56, (R)-7-(3-(1-aminocyclo-propyl)pyrrolidin-1-yl)-9-cyclopropyl-8-methoxy-isothia-zolo[5,4-b]quinoline-3,4(2H,9H)-dione, hydrochloride]
≤ 1 µg/mL: all assays above

COc1c(N(C)C)c(F)cc2c(=O)c3c(=O)[nH]sc3n(C3CC3)c12 [Compound 42, 9-cyclopropyl-7-(dimethyl-amino)-6-fluoro-8-methoxyiso-thiazolo[5,4-b]quinoline-3,4(2H,9H)-dione]
≤ 1 µg/mL: all assays above

CCNC(C)(C)[C@@H]1CCN(c2c(F)cc3c(=O)c4c(=O)[nH]sc4n(C4CC4)c3c2OC)C1 [Compound 89, (R)-9-cyclo-propyl-7-(3-(2-(ethyl-amino)propan-2-yl)pyrrolidin-1-yl)-6-fluoro-8-methoxyiso-thiazolo[5,4-b]quinoline-3,4(2H,9H)-dione]
≤ 1 µg/mL: all assays above

COc1c(N2CC[C@H](C(C)NC3CC3)C2)c(F)cc2c(=O)c3c(=O)[nH]sc3n(C3CC3)c12 (stereo partly drawn) [Compound 94, (S)-9-cyclo-propyl-7-(3-(1-(cyclo-propylamino)ethyl)-pyrrolidin-1-yl)-6-fluoro-8-methoxyiso-thiazolo[5,4-b]quinoline-3,4(2H,9H)-dione]
≤ 1 µg/mL: all assays above

[2H]C1([2H])CC(C(C)(C)N)C([2H])([2H])N1c1c(F)cc2c(=O)c3c(=O)[nH]sc3n(C3CC3)c2c1OC (stereo not drawn) [Compound 71, 7-(3-(2-amino-propan-2-yl)-2,2,5,5-tetradeuterated-pyrrolidin-1-yl)-9-cyclopropyl-6-fluoro-8-methoxyiso-thiazolo[5,4-b]quinoline-3,4(2H,9H)-dione]
≤ 1 µg/mL: all assays above

COc1c(N2CC(C)C(C#N)C2)c(F)cc2c(=O)c3c(=O)[nH]sc3n(C3CC3)c12 (stereo not drawn) [Compound 100, 1-(9-cyclo-propyl-6-fluoro-8-methoxy-3,4-dioxo-2,3,4,9-tetrahydroisothia-zolo[5,4-b]quinolin-7-yl)-4-methyl-pyrrolidine-3-carbonitrile]
≤ 1 µg/mL: all assays above

CNC(C)[C@@H]1CCN(c2ccc3c(=O)c4c(=O)[nH]sc4n(C4CC4)c3c2OC)C1 (stereo partly drawn) [Compound 103, (R)-9-cyclo-propyl-8-methoxy-7-(3-(1-(methylamino)-ethyl)pyrrolidin-1-yl)isothia-zolo[5,4-b]quinoline-3,4(2H,9H)-dione]
≤ 1 µg/mL: all assays above

CNC(C)[C@@H]1CCN(c2c(F)cc3c(=O)c4c(=O)[nH]sc4n(C4CC4)c3c2OC)C1 (stereo partly drawn) [Compound 74, (R)-9-cyclopropyl-6-fluoro-8-methoxy-7-(3-(1-(methyl-amino)ethyl)-pyrrolidin-1-yl)isothia-zolo[5,4-b]quinoline-3,4(2H,9H)-dione]
≤ 1 µg/mL: all assays above

COc1c(N2CC[C@@H](C3(N)CC3)C2)c(F)cc2c(=O)c3c(=O)[nH]sc3n(C3CC3)c12 [Compound 55, (R)-7-(3-(1-amino-cyclopropyl)pyrrolidin-1-yl)-9-cyclopropyl-6-fluoro-8-methoxyiso-thiazolo[5,4-b]quinoline-3,4(2H,9H)-dione, hydrochloride]
≤ 1 µg/mL: all assays above

COc1c(N2CC[C@@H](C(C)(C)N)C2)ccc2c(=O)c3c(=O)[nH]sc3n(C3CC3)c12 [Compound 54, (R)-7-(3-(2-aminopropan-2-yl)pyrrolidin-1-yl)-9-cyclopropyl-8-methoxyiso-thiazolo[5,4-b]quinoline-3,4(2H,9H)-dione, hydrochloride]
≤ 1 µg/mL: all assays above

COc1c(N2CC[C@@H](C(C)NC3CC3)C2)c(F)cc2c(=O)c3c(=O)[nH]sc3n(C3CC3)c12 (stereo partly drawn) [Compound 93, (R)-9-cyclo-propyl-7-(3-(1-(cyclo-propylamino)ethyl)-pyrrolidin-1-yl)-6-fluoro-8-methoxyiso-thiazolo[5,4-b]quinoline-3,4(2H,9H)-dione]
≤ 1 µg/mL: all assays above

CCNC(C)[C@@H]1CCN(c2c(F)cc3c(=O)c4c(=O)[nH]sc4n(C4CC4)c3c2OC)C1 (stereo partly drawn) [Compound 77, (R)-9-cyclo-propyl-7-(3-(1-(ethyl-amino)ethyl)pyrrolidin-1-yl)-6-fluoro-8-methoxyiso-thiazolo[5,4-b]quinoline-3,4(2H,9H)-dione]
≤ 1 µg/mL: all assays above

COc1c(N2CC[C@@H](C(C)N)C2)c(F)cc2c(=O)c3c(=O)[nH]sc3n(C3CC3)c12 (stereo partly drawn) [Compound 73, (R)-7-(3-(1-aminoethyl)pyrrolidin-1-yl)-9-cyclopropyl-6-fluoro-8-methoxyiso-thiazolo[5,4-b]quinoline-3,4(2H,9H)-dione]
≤ 1 µg/mL: all assays above

CC(C)(N)C1CCN(c2c(F)cc3c(=O)c4c(=O)[nH]sc4n(C4CC4)c3c2F)C1 (stereo not drawn) [Compound 75, 7-(3-(2-amino-propan-2-yl)pyrrolidin-1-yl)-9-cyclo-propyl-6,8-difluoroiso-thiazolo[5,4-b]quinoline-3,4(2H,9H)-dione]
≤ 1 µg/mL: all assays above

COc1c(N2CC(C)C(CN)C2)c(F)cc2c(=O)c3c(=O)[nH]sc3n(C3CC3)c12 (stereo not drawn) [Compound 95, 7-(3-(amino-methyl)-4-methyl-pyrrolidin-1-yl)-9-cyclopropyl-6-fluoro-8-methoxyiso-thiazolo[5,4-b]quinoline-3,4(2H,9H)-dione]
≤ 1 µg/mL: all assays above
